Data: US9649271B2, “Hair thickening compositions and methods of use” (The Procter & Gamble Company, priority 2013, dated 2017)

Tests used:
[1] = Measurement of average thickness increase of single hair fibers
Protocol: The fibers are then removed and allowed to equilibrate and dry overnight. • 4) The next day, the fibers are imaged and measured for a final reading. For each experiment, untreated control and product treatment controls are ran, and at least 5 fibers are measured per treatment. • 5) In order to measure increase in thickness as a function of treatment, the […]. The average thickness increase is reported in the Table above, with measurements reported in micrometers. Viscosity Test Method

[2] = Viscosity test method (cone and plate viscometer/rheometer); type: physicochemical; settings: hair care composition (Example 1 formula) with 0.15% resorcinol of the given type, 1.89% Sepigel
Description: The viscosity of the hair care composition may be determined by a cone and plate viscometer/rheometer which measures the viscous drag resulting from the sample material contained in the gap between a rotating cone and a stationary plate. The geometry of the cone and plate may be such that the entire sample is subjected to a uniform shear rate.

Row | Viscosity [2] | SMILES | average thickness increase compared to Resorcinol Type 2 and Type 3 (in words) ([1]; Example 1 formula, different types of resorcinol substituted) | Average Thickness Increase ([1]; Example 1 formula with 0.15% resorcinol of the given type, 1.89% Sepigel, fibers treated 10 minutes, dried overnight, at least 5 fibers per treatment)
1 |  | Oc1ccc(Cl)c(O)c1 [Resorcinol 1, 4-Chlororesorcinol] | measurable average thickness increase | 
2 | 15958 cps | Oc1cccc(O)c1 [Resorcinol 3, 1,3-Dihydroxybenzene] |  | 3.5 μm
